Data published in US20220009920A1 (GB005, Inc., priority 2020, published 2022).

Assays:
Assay in all cases: Large panel kinase profiling
Assay type in all cases: biochemical
Conditions in all cases: 1 μM test article, 1 mM ATP
CHUK/IKKA = molecular target: T1, CHUK/IKKA (Homo sapiens, UniProt O15111)
T1 construct: AssayQuant Technologies, Inc. (ran the panel)
T1 sequence (O15111 1-745): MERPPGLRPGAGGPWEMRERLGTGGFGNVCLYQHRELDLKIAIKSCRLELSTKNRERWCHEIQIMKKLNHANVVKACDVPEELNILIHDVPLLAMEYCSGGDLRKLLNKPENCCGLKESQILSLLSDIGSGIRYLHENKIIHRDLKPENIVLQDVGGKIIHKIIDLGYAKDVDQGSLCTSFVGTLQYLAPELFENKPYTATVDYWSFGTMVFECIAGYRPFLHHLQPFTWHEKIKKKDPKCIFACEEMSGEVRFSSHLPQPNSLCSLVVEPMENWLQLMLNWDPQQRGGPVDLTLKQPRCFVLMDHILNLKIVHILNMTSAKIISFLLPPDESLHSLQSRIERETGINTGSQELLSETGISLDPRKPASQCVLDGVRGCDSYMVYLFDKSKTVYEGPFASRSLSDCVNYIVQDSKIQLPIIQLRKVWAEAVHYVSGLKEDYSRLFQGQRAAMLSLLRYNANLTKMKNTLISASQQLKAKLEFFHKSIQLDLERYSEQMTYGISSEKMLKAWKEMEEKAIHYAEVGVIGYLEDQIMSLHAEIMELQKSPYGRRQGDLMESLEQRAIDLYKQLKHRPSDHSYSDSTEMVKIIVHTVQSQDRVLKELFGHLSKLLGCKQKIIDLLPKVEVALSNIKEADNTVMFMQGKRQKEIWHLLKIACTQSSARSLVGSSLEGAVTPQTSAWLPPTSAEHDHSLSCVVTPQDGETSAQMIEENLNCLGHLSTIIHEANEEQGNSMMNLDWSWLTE
Method in brief: (§1)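 Reactions contain 1 mM ATP and 1 μM test article; the CSox peptide sensor reports phosphorylation as fluorescence gain. Temperature is held at 30° C. while signal (360 nm excitation, 485 nm emission) is recorded every 1 min.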

CLK1 = molecular target: T2, CLK1 (Homo sapiens, UniProt P49759)
T2 construct: AssayQuant Technologies, Inc. (service laboratory)
T2 sequence (P49759 whole entry): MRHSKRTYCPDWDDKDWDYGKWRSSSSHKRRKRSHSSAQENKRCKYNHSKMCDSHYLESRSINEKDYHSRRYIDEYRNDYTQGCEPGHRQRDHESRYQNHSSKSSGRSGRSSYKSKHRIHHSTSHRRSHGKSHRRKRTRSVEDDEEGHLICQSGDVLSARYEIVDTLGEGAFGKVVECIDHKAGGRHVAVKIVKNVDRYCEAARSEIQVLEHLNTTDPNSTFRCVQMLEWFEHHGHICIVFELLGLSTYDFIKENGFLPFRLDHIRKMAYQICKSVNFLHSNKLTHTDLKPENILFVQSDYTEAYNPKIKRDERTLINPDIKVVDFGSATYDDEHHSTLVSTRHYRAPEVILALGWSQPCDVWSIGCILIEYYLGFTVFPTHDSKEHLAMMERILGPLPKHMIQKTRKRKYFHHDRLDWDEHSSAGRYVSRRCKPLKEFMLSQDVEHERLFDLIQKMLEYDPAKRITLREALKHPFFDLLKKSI
Method in brief: as §1

MARK4 = molecular target: T3, MARK4 (Homo sapiens, UniProt Q96L34)
T3 construct: AssayQuant Technologies, Inc. (assay service)
T3 sequence (Q96L34 1-752): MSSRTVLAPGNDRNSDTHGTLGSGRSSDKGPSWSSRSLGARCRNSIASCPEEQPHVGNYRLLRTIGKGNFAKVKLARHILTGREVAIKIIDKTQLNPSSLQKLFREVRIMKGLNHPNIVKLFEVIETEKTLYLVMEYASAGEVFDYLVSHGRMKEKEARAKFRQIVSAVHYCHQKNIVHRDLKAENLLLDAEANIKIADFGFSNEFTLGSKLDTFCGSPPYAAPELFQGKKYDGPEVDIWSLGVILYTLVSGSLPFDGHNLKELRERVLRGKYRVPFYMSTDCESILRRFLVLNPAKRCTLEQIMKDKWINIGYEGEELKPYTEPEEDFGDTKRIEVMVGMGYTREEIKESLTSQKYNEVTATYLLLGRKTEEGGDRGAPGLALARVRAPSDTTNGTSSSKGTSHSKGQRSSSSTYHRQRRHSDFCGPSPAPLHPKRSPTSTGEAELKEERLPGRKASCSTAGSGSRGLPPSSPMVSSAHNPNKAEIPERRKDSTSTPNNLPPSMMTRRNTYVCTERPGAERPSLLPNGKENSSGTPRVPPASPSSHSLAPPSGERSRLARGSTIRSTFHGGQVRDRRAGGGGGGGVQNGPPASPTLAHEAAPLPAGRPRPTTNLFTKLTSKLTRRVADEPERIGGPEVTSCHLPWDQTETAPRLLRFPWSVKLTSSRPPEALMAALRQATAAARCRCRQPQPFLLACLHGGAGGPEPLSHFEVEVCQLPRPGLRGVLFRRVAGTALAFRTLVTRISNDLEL
Method in brief: as §1

PDGFRA = PDGFRA (Homo sapiens, UniProt P16234)
Sequence of PDGFRA (P16234 24-1089, species assumed): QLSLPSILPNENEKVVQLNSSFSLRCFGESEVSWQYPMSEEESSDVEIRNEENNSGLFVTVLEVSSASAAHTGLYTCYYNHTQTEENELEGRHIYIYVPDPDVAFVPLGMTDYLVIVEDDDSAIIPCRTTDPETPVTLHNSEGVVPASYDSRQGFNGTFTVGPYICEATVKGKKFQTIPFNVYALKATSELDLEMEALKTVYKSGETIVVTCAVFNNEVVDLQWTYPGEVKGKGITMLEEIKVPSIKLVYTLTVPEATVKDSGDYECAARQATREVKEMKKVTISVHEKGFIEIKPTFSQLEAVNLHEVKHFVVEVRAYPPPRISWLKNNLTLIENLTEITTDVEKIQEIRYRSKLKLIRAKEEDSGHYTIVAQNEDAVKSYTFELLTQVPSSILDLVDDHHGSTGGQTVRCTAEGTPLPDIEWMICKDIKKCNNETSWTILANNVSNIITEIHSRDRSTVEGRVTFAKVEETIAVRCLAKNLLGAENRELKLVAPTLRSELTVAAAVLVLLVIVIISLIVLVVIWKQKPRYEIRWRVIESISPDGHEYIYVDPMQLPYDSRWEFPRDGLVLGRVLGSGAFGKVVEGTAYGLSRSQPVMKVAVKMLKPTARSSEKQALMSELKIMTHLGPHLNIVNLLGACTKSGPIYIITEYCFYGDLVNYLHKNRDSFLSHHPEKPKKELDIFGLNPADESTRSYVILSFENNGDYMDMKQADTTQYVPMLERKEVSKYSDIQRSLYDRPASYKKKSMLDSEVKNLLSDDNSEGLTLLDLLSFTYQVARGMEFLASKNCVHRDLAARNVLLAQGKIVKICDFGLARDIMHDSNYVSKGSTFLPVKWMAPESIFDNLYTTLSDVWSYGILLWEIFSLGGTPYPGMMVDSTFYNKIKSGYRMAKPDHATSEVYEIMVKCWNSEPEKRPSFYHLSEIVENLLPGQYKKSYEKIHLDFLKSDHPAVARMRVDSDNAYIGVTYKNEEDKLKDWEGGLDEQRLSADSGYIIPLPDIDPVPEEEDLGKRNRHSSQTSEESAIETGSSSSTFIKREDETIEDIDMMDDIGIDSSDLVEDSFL
Method in brief: as §1

SK1 = molecular target: T4, SK1 (Homo sapiens, UniProt P57059)
T4 construct: AssayQuant Technologies, Inc. (contract assay)
T4 sequence (P57059 whole entry): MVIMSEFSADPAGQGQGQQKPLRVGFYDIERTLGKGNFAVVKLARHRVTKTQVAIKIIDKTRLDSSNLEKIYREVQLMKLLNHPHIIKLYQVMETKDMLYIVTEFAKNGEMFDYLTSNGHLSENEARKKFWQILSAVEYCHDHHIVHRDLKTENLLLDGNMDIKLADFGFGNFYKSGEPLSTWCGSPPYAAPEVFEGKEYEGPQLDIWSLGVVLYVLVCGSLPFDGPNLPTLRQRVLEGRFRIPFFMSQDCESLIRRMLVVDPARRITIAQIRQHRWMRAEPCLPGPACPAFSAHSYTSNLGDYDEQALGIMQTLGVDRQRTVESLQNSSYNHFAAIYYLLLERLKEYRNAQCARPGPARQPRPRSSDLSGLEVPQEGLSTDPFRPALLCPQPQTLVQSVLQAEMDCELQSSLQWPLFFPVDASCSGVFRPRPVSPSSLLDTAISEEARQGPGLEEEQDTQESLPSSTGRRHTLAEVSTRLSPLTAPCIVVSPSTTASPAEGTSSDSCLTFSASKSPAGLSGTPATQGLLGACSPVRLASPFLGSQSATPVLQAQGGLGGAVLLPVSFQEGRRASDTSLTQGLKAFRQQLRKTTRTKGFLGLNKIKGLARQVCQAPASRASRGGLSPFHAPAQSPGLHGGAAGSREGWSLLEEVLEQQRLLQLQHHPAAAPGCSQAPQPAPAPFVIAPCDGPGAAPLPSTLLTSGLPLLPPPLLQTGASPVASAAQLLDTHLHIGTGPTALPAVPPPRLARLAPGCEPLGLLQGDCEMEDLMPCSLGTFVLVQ
Method in brief: as §1

STK3/MST2 = molecular target: T5, STK3/MST2 (Homo sapiens, UniProt Q13188)
T5 construct: AssayQuant Technologies, Inc. (contract assay)
T5 sequence (Q13188 1-491): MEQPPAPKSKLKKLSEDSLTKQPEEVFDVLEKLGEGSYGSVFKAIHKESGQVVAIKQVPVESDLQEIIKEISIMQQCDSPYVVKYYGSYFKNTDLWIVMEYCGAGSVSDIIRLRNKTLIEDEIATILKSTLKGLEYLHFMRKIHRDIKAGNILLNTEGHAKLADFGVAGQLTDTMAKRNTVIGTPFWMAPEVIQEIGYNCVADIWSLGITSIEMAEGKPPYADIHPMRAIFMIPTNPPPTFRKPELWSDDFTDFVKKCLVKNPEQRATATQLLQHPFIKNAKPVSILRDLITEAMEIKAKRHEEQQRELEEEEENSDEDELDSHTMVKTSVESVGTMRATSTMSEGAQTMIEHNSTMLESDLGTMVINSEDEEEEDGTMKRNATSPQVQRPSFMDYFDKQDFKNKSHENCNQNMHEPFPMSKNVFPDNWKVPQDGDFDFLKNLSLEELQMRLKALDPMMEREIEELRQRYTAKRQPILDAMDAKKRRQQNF
Method in brief: as §1

SYK = molecular target: T6, SYK (Homo sapiens, UniProt P43405)
T6 construct: AssayQuant Technologies, Inc. (contract assay)
Method in brief: as §1

Compound `C=CC(=O)N1CCCC(c2c(F)cc(C(N)=O)c3[nH]c4c(c23)CCCCC4)C1` (single isomer, unassigned) [Compound 5-6] has an inhibition at 1 µM (CHUK/IKKA) of 4%, an inhibition at 1 µM (CLK1) of -26.4% and an inhibition at 1 µM (MARK4) of 8.1%. It also gave an inhibition at 1 µM (PDGFRA) of -26.6%, an inhibition at 1 µM (SK1) of -13.6% and an inhibition at 1 µM (STK3/MST2) of -13.7%. The inhibition at 1 µM (SYK) was 2.8%.

With `C=CC(=O)N1CCC[C@@H](c2c(F)cc(C(N)=O)c3[nH]c4c(c23)CC2(CC4)CC2)C1` [Compound 6-2, (S)-5-(1-acryloylpiperidin-3-yl)-6-fluoro-1,2,4,9-tetrahydrospiro[carbazole-3,1′-cyclopropane]-8-carboxamide] the inhibition at 1 µM (CHUK/IKKA) was -36.4%, the inhibition at 1 µM (CLK1) was -10.4% and the inhibition at 1 µM (MARK4) was -10.2%. It also gave an inhibition at 1 µM (PDGFRA) of 23.9%, an inhibition at 1 µM (SK1) of 4.6% and an inhibition at 1 µM (STK3/MST2) of -25.3%. For the same compound, the inhibition at 1 µM (SYK) was -5.3%.

With `C=CC(=O)N1CCC[C@@H](c2c(F)cc(C(N)=O)c3[nH]c4c(c23)CCC4)C1` [Compound 10-2, (S)-8-(1-acryloylpiperidin-3-yl)-7-fluoro-1,2,3,4-tetrahydrocyclo-penta[b]indole-5-carboxamide] the inhibition at 1 µM (CHUK/IKKA) was -14.5%, the inhibition at 1 µM (CLK1) was -11.1% and the inhibition at 1 µM (MARK4) was 1.7%. For the same compound, the inhibition at 1 µM (PDGFRA) was 2.1%, the inhibition at 1 µM (SK1) was 13.5% and the inhibition at 1 µM (STK3/MST2) was -14.4%. The inhibition at 1 µM (SYK) was -14.1%.
